Assay results from patent publication US8003136B2, “Standardization of botanical products utilizing biological activity as a marker” (priority 2004, dated 2011).
In brackets after ≈: the same amount, converted by molar mass. Where two headings read alike, the source gives them in different places.

Tests used:
[1] = oral, 32 patients, 3 months; cited from earlier work
murine leukemia L1210 = settings: cited from earlier work
Giardiasis = settings: berberine 10 mg/kg/day for 10 days; metronidazole 20 mg/kg/day for 5-7 days; cited from earlier work
Streptococcus mutans = settings: Hwang (2003); cited from earlier work
[2] = tested on: McF7, a breast epithelial cell line; experiment: MTS cell proliferation assay, McF7; type: cell-based
Source text: Another study at Clemson examined the anti-tumor properties of berberine when combined with pump inhibitory characteristics of leaf extracts from Hydrastis. This combination inhibited proliferation of both CaCo2, a colon epithelial cell line, and McF7, a breast epithelial cell line. […] Anti-tumor properties block uncontrolled growth, while pump inhibitory properties aid in lowering the dosage of drugs needed to treat the patient. MTS assay was used to measure cell proliferation. Cell proliferation of McF7 was reduced to 45% of the control when treated with 2% of berberine. […] However, a synergetic effect was observed when combining 0.5% berberine with 1.5% leaf extract. Proliferation of McF7 was reduced to 59% compared to the untreated cells. The Cell Titer 96® AQueous Non-radioactive Cell proliferation Assay manufactured by Promega, is a colorimetric method used to measure dehydrogenase activity found in metabolically active cells. The MTS is reduced to formazan in the presence of metabolically active cells and the absorbance of formazan is measured spectrophotometrically. Two days post subculture, cells will be rinsed twice with respective media, harvested, and the cell concentration adjusted to 1×10^5 cells/ml. Fifty μl of the cell suspension will be added to the individual wells of a 96-well microtiter plate. […] At the end of the incubation period, absorbance will be recorded at 490 nm.

[3] = hyperlipidemic hamsters; cited from earlier work
hepatoma HepG2 cells = settings: cited from earlier work
[4] = tested on: Chang (normal) liver cells; settings: cited from earlier work
human tumour HeLa = settings: cited from earlier work
[5] = tested on: CaCo2, a colon epithelial cell line; experiment: MTS cell proliferation assay, CaCo2; type: cell-based
Procedure: Another study at Clemson examined the anti-tumor properties of berberine when combined with pump inhibitory characteristics of leaf extracts from Hydrastis. […] Anti-tumor properties block uncontrolled growth, while pump inhibitory properties aid in lowering the dosage of drugs needed to treat the patient.
MTS assay was used to measure cell proliferation.
The MTS is reduced to formazan in the presence of metabolically active cells and the absorbance of formazan is measured spectrophotometrically. Two days post subculture, cells will be rinsed twice with respective media, harvested, and the cell concentration adjusted to 1×10^5 cells/ml. Fifty μl of the cell suspension will be added to the individual wells of a 96-well microtiter plate. Each well will contain 50 μl of the test sample (extract) or standard reference drug. Plates will be incubated for 48 to 72 hr at 37° C. in a CO2 incubator. After incubation, 20 μl of MTS/PMS solution will be added, and the plates incubated for an additional 1 to 4 hr. At the end of the incubation period, absorbance will be recorded at 490 nm.

[6] = tested on: Bifidobacterium adolescentis, Lactobacillus acidophilus, and Lactobacillus casei; settings: cited from earlier work
[7] = tested on: HT-1080 (human fibrosarcoma); settings: cited from earlier work
Giardia = settings: three divided doses for 6 days; berberine 5 mg/kg/day, metronidazole 10 mg/kg/day; cited from earlier work
[8] = tested on: COX-2 transcriptional activity in human colon cancer cells; settings: dose- and time-dependent; cited from earlier work
E. coli strain ORN178 = experiment: MIC and MBC against E. coli strain ORN178; type: cell-based; settings: for concentration determined to be non-inhibitory (up to): inhibitor alone
Procedure: Minimum inhibition concentration (MIC) will be tested in appropriate liquid media in 96-well microtiter plates. Each well contains 5×10^5 CFU/ml of test bacteria, serially diluted extracts and medium. In some cases when chemical solvents are used, it will be tested simultaneously with the test compounds to ensure the absence of antimicrobial activity. Triplicate samples are to be performed.
After 10 min at 37° C., the treated bacterial (or fungal) culture will be diluted and viable colony counts determined. The ability of goldenseal extract in killing test organisms will be elucidated.
Antimicrobial Characteristics of Goldenseal: Antimicrobial activities of SHF NOP certified Hydrastis were evaluated and compared to that of pure chemical berberine sulfate and berberine chloride. […] The synergistic effects of berberine with the known MDR pump inhibitor (reserpine and orthovanadate) as well as Hydrastis root extracts with leaf extracts were also determined. Please refer to the Materials and Methods section for detailed protocol. All extracts were lyophilized and reconstituted in H2O.

transplanted B16 line = settings: day 16, doses of 5 and 10 mg/kg; cited from earlier work
[9] = tested on: human gastric carcinoma SNU-5 cells; settings: SNU-5 cell line; cited from earlier work
[10] = tested on: SNU-638 (human stomach adenocarcinoma); settings: cited from earlier work
[11] = in 2.5 hrs; cited from earlier work
[12] = tested on: 15 strains of Helicobacter pylori; settings: Mahady, 2003; cited from earlier work
[13] = tested on: Human gastric adenocarcinoma (AGS) cells; experiment: growth reduction of AGS cells; type: cell-based
Source text: Hydrastis leaf extract produced activity slightly less than the control or root extract but contained one fifth of the berberine indicating synergistic and/or additive compounds exist in the leaf. Antineoplastic—Cancer Cell Cultures. This assay measures the ability of Hydrastis to stimulate or arrest metabolic activity of tumor cells. Human gastric adenocarcinoma (AGS), CaCo2 colon cancer cells and normal colon epithelial tissue (ATCC) will be grown in Petri plates on Dulbecco's Modified Eagle Medium (DME) with 4 mM L-glutamine, 4.5 g/l glucose and 10% fetal bovine serum. CRL 7368 Breast Cancer cells and CRL 7367 Fibroblast control cells will be grown in Petri plates on DME with 4 mM L-glutamine, 4.5 g/l glucose, 1.5 g/l sodium bicarbonate and 10% fetal bovine serum. A 95% confluent layer of healthy cells will be divided as follows: surface media will be poured from the plates so that the cells are not dislodged. Ten milliliters of sterile phosphate-buffered saline (PBS) will be added to the plates to rinse the cell layer and then discarded. […] Cellular release by the trypsin is indicated when the cell layer moves when the plate is tilted. Dislodged cells will be added to 15 ml sterile tubes containing 1 ml calf serum. […] The cellular pellet is suspended in 5 ml of medium by mixing. A cell suspension aliquot (0.1 ml) is added to 0.9 ml of 0.4% Trypan Blue and mixed. Cell counts will be made using a hemocytometer charged with the cell suspension. Aliquots of the cell suspension (based on cell count) will be added to Petri plates, then 15 ml of media will be added and the plates incubated at 37° C. in a CO2 incubator. Cells will be checked daily for contamination and morphology. Media will be replaced every 2 to 3 days with fresh medium. The Cell Titer 96® AQueous Non-radioactive Cell proliferation Assay manufactured by Promega, is a colorimetric method used to measure dehydrogenase activity found in metabolically active cells. The MTS is reduced to formazan in the presence of metabolically active cells and the absorbance of formazan is measured spectrophotometrically. Two days post subculture, cells will be rinsed twice with respective media, harvested, and the cell concentration adjusted to 1×10^5 cells/ml. Fifty μl of the cell suspension will be added to the individual wells of a 96-well microtiter plate. Each well will contain 50 μl of the test sample (extract) or standard reference drug. Plates will be incubated for 48 to 72 hr at 37° C. in a CO2 incubator. After incubation, 20 μl of MTS/PMS solution will be added, and the plates incubated for an additional 1 to 4 hr. At the end of the incubation period, absorbance will be recorded at 490 nm.

SA-1199B = experiment: MIC against Staph. strain SA-1199B (over expresses NorA MDR efflux protein); type: cell-based
Source text: (§1) Additional preliminary data regarding the potential synergistic activity of Hydrastis leaf on two Staph. strains SA-1199B and SA-K2068 was developed using Hydrastis extracts. […]

SA-K2068 = experiment: MIC against Staph. strain SA-K2068 (MDR efflux pump distinct from NorA); type: cell-based
Source text: as §1

[14] = 10 μg/ml of reserpine or 2 mM of orthovanadate supplemented

## COc1ccc2cc3[n+](cc2c1OC)CCc1cc2c(cc1-3)OCO2 [berberine]
[1]
  reduction of LDL-cholesterol: 25%
  reduction of serum cholesterol: 29%
  reduction of triglycerides: 35%
Murine leukemia L1210; Jantova, 2003
  IC50: less than 4 microg mL(−1)
Murine leukemia L1210; Kettman, 2004
  IC50: less than 4 microg/ml
Giardiasis
  negative stool specimens after 10 days: Ninety
  remained negative one month later: 83%
Streptococcus mutans
  Minimum Inhibitory Concentration (MIC): 125 µg/mL
[2]; 0.5% berberine combined with 1.5% leaf extract
  Proliferation of McF7 compared to the untreated cells: 59%
[2]; treated at a concentration of 2%
  Cell proliferation of McF7, % of the control: 45%
[3]
  increase in hepatic LDLR mRNA: 3.5 fold
  increase in hepatic LDLR protein: 2.6 fold
  reduction of LDL-cholesterol: 42%
  reduction of serum cholesterol: 40%
Hepatoma HepG2 cells
  cytotoxicity: significant cytotoxicity
[4]
  cytotoxicity: ineffective
Human tumour HeLa; Jantova, 2003
  IC50: less than 4 microg mL(−1)
Human tumour HeLa; Kettman, 2004
  IC50: less than 4 microg/ml
[5]; combination of 0.5% berberine and 0.5% leaf extract
  cell proliferation rate, CaCo2: 48%
[5]; treated with 0.5%
  cell proliferation, CaCo2: 75%
[6]
  inhibition of "friendly" bacteria: weak or no inhibition
[7]
  IC50: 3.2 µg/mL
Giardia
  subjects Giardia-free upon stool analysis: 68%
  subjects asymptomatic / resolution of symptoms: 48%
[8]
  concentrations that inhibit COX-2 transcriptional activity: higher than 0.3 microM
E. coli strain ORN178; [14]
  MBC of berberine reduced to: ¼
  MIC of berberine reduced by: half
E. coli strain ORN178; Escherichia coli, ORN178, berberine alone, read-out: MBC (μg/ml berberine)
  MBC: 125 µg/mL
E. coli strain ORN178; Escherichia coli, ORN178, berberine alone, read-out: MIC (μg/ml berberine)
  MIC: 62.5 µg/mL
Transplanted B16 line
  tumor volume: significant reduction
[9]
  IC50: 48 µM
[10]
  IC50: 3.4 µg/mL
[11]
  absorbed in the intestine: less than 5%
[12]
  MIC50: 12.5 µg/mL

## COC(=O)[C@H]1[C@H]2C[C@@H]3c4[nH]c5cc(OC)ccc5c4CCN3C[C@H]2C[C@@H](OC(=O)c2cc(OC)c(OC)c(OC)c2)[C@@H]1OC [reserpine]
E. coli strain ORN178
  concentration determined to be non-inhibitory (up to): Up to 5000 μg/ml

## [O]=[V]([O-])([O-])[O-] [orthovanadate]
E. coli strain ORN178
  concentration determined to be non-inhibitory (up to): ≤ 4 mM

## COc1ccc2cc3[n+](cc2c1OC)CCc1cc2c(cc1-3)OCO2 [Berberine chloride]
[13]; first volume column, unit μl, berberine chloride control 500 μg/ml
  % growth reduction of AGS cells: .7%
[13]; fourth volume column, unit μl
  % growth reduction of AGS cells: 2.6%
[13]; head printed '0 μl'
  % growth reduction of AGS cells: 4.2%
[13]; head printed '6 μl'
  % growth reduction of AGS cells: 2.1%
[13]; second volume column, unit μl
  % growth reduction of AGS cells: .5%
[13]; third volume column, unit μl
  % growth reduction of AGS cells: 3.7%

## Cc1ncc([N+](=O)[O-])n1CCO [metronidazole]
Giardiasis
  negative stool specimens after 10 days: 95%
  remained negative one month later: 90%
Giardia
  subjects Giardia-free upon stool analysis: All
  subjects asymptomatic / resolution of symptoms: 33%

## COc1ccc2c(c1OC)C(=O)O[C@@H]2[C@H]1c2cc3c(cc2CCN1C)OCO3 [beta-hydrastine]
[12]
  MIC50: 100.0 µg/mL (≈ 261 µM)

## O=C(O)c1cn(C2CC2)c2cc(N3CCNCC3)c(F)cc2c1=O [Ciprofloxacin]
SA-1199B; +312.5 μg/mL leaf ext.
  MIC: 2 µg/mL
SA-1199B; +625 μg/mL leaf ext.
  MIC: 2 µg/mL
SA-1199B; +1250 μg/mL leaf ext.
  MIC: < 0.5 µg/mL
SA-1199B; +5~20 μg/mL Reserpine
  MIC: 1 µg/mL
SA-1199B; agent alone
  MIC: 8 µg/mL
SA-K2068; read-out: SA K2068 MIC, +312.5 μg/mL leaf ext.
  MIC: 0.5 µg/mL
SA-K2068; read-out: SA K2068 MIC, +625 μg/mL leaf ext.
  MIC: 0.5 µg/mL
SA-K2068; read-out: SA K2068 MIC, +5~20 μg/mL Reserpine
  MIC: 0.5 µg/mL
SA-K2068; read-out: SA K2068 MIC, agent alone
  MIC: 4 µg/mL
